# Source: article doi:10.1101/2023.10.14.562361v1 (biorxiv, 2023)
# Legend:
# Smurf1 HECT [1] = biological target: T1, Smurf1 HECT (Homo sapiens, UniProt Q9HCE7); assay: UbFluor fluorescence polarization assay; assay type: biochemical
# Smurf1 HECT [2] = biological target: T1, Smurf1 HECT; assay: biolayer interferometry; assay type: binding
# Smurf1C2 = assay: UbFluor fluorescence polarization assay; assay type: biochemical, Homo sapiens; conditions: 0.5 µM enzyme, 2 µM UbFluor, pH 7.4, 0.01% Tween20
# Smurf1 FL = Smurf1 FL (Homo sapiens, UniProt Q9HCE7); assay: UbFluor fluorescence polarization assay; assay type: biochemical
# Smurf1 FL, sequence (Q9HCE7 whole entry): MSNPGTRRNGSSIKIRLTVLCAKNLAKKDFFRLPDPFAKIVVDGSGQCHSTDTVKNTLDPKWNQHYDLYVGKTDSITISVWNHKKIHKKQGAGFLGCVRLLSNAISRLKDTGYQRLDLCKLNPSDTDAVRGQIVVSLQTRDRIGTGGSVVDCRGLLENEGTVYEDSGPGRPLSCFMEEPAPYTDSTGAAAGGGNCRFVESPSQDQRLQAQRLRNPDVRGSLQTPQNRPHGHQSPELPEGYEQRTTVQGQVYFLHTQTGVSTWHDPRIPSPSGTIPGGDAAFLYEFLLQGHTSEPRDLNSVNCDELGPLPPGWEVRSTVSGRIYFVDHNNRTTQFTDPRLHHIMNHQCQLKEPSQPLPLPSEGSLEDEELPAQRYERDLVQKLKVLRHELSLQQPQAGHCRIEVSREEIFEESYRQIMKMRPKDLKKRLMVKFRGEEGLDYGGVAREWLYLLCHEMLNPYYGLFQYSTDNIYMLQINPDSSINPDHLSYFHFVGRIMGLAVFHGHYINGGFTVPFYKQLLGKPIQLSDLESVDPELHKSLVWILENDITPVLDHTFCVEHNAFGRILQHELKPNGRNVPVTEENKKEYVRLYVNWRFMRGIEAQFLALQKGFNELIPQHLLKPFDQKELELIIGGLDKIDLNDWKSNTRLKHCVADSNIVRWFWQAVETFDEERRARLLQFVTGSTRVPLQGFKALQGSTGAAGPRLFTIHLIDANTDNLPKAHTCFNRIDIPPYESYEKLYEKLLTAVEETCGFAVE
# T1 sequence (Q9HCE7 341-757): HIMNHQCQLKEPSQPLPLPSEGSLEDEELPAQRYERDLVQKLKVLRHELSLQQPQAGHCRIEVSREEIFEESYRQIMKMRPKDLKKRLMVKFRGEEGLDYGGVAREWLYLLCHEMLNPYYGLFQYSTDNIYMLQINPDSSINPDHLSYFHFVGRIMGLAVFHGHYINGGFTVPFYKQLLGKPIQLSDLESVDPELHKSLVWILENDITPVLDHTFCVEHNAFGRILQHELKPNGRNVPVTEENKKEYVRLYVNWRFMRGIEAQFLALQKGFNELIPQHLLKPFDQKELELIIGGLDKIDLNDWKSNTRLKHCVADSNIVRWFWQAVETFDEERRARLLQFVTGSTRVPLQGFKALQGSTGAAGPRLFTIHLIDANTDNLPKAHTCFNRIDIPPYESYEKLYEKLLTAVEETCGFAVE
Compound,IC50 (Smurf1 HECT [1]),Kd (Smurf1 HECT [2]),IC50 (Smurf1C2),IC50 (Smurf1 FL)
Cc1c(NC(=O)c2noc3c2CCSc2cc(OC(F)(F)F)ccc2-3)c(=O)n(C2CCCCC2)n1C [compound 1],450 nM,25800 ± 2200 nM,140 nM,230 nM
Cc1c(C(=O)Nc2c(C)n(C)n(C3CCCCC3)c2=O)nnn1-c1ccc(OC(F)(F)F)cc1Cl [compound 2],–,54500 ± 2000 nM,3100 nM,–
